Source: patent US20230008317A1, “Z-STILBENE AMPK ACTIVATOR COMPOUNDS, COMPOSITIONS, METHODS AND USES THEREOF” (SOCIETE DES PRODUITS NESTLE S.A., priority 2019, published 2023)

Columns and labels:
AMPKα2β1γ1 = target: T1, AMPKα2β1γ1 (Homo sapiens, UniProt P54619+P54646+Q9Y478); test: HTRF KinEASE activation assay with bacterially-expressed, phosphorylated purified AMPKα2β1γ1 complex; format: biochemical; settings: varying concentrations, 30 mins incubation, cell-free; FIG. 1
T1 construct: His; made in house
Protocol: Varying concentrations of compound 1 was incubated with phosphorylated purified AMPK α2β1γ1 for 30 mins. AMPK activity was determined using the HTRF KinEASE assay kit and results are presented as the ratio of 665/620 nm (STK1 phosphorylation).
The AMPKα2β1γ1 complex was expressed in bacteria and purified through the His-α subunit by nickel purification, purified through gel filtration and phosphorylated by incubation with CaMKKβ, and then further purified through a final gel filtration purification step. Phosphorylated purified AMPK was incubated with varying concentrations of ligand for 30 mins along with substrate and reagents from the HTRF-KinEASE Cisbio assay kit (STK S1 Kit). Phosphorylation of the substrate was measured by incubating with donor and acceptor antibodies for 2 h at room temperature as per the manufacturer's protocol (and Coulerie et al., (2016), see below) and phosphorylated peptide detected by performing HTRF.

[1] = tested on: U-2 OS Flp-In T-REx cells (phosphorylation of acetyl-CoA carboxylase, ACC); test: pACC HTRF assay: phosphorylation of the AMPK substrate ACC in U-2 OS Flp-In T-REx cells; format: cell-based; settings: varying concentrations, 30 mins at 37 C, media lacking FBS; FIG. 2
Protocol: U-2 OS cells were treated with varying concentrations of compound 1 for 30 mins at 37 C. Phosphorylation of ACC was assessed using the HTRF Cisbio (pACC kit).
U-2 OS Flp-In T-REx cells were seeded at 50 K in a 96-well plate and left overnight at 37 C in DMEM GlutaMAX (Thermo Fisher Scientific) supplemented with 10% (vol/vol) FBS and 100 U/ml penicillin G, and 100 μg/ml streptomycin. Cells were treated for 30 mins with varying concentrations of compound 1 in media lacking FBS and then cells were lysed in 50 μl of Cisbio lysis buffer #1 supplemented with blocking solution as per the manufacturer's protocol (Cisbio). Cells were lysed for 30 mins at room temperature before 16 μl of lysate was incubated with 4 μl of the HTRF antibodies (1:40 dilution of the acceptor and donor (p)ACC antibodies, as per the manufacturers protocol). Lysates were incubated overnight with the antibodies before 665 nm/620 nm ratio was determined using a MolecularDevices i3 plate reader (with a HTRF cartridge add-on). The results are plotted as fold activation compared to the respective AMPK complex without any compound.

T1 sequence (P54646 whole entry): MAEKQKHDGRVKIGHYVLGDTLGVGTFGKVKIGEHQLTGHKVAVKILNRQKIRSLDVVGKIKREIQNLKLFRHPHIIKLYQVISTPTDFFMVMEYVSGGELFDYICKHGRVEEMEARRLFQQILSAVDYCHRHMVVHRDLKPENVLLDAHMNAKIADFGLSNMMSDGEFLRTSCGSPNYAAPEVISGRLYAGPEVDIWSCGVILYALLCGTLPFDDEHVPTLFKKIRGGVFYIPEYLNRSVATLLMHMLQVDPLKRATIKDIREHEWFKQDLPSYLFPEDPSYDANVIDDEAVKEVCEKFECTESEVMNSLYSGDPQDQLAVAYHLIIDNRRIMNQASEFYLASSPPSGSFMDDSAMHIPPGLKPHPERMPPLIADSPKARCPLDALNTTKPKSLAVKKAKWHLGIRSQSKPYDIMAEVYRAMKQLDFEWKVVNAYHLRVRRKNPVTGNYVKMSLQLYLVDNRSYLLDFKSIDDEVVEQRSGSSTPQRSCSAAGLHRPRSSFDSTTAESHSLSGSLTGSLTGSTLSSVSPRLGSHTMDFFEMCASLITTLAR
T1 sequence (Q9Y478 whole entry): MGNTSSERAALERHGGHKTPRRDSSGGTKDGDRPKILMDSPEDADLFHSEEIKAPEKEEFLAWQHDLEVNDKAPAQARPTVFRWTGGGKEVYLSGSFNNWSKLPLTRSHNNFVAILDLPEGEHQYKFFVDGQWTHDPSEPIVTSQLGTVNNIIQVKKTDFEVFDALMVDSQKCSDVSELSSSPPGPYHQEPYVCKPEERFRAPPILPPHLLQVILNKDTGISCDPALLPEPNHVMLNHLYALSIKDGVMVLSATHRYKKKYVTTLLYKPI
T1 sequence (P54619 whole entry): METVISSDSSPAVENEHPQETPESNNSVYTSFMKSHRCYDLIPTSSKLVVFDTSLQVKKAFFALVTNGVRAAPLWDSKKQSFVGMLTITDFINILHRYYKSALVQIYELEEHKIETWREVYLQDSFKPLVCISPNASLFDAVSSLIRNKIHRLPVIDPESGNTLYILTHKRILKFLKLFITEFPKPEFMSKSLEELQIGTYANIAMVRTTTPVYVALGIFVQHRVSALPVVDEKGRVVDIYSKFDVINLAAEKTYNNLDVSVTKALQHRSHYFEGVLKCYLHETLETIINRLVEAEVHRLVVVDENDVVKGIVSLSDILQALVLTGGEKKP

AMPK activity (STK1 substrate phosphorylation, 665 nm/620 nm ratio) (AMPKα2β1γ1): allosterically activates AMPKα2β1γ1
Compound: COc1cc(O)cc(/C=C\c2cccc(O)c2)c1 [compound 1, (Z)-3,3′-Dihydroxy-5-methoxystilbene]
Phosphorylation of ACC (fold activation relative to untreated cells) [1]: increased the phosphorylation of the AMPK substrate, ACC, in a dose-dependent manner
